± gives the standard deviation of the averaged measurements.
Experiments:
[1] = compound: T1, C=CC(=O)Nc1cc2c(Nc3ccc(F)c(Cl)c3)ncnc2cc1OCCCN1CCOCC1 [CANERTINIB]; assay: surviving fraction relative to DMSO-only wells; higher = less growth inhibition; details: exposure time: 5 days
How it was run: (§1)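 For each tumour cell line, log-phase cells were put into 384-well plates at 250–500 cells per well, then after 24 hours exposed continuously for five days to inhibitors at 0.5, 1, 5, 10, 50, 100, 500 and 1000 nM. Viability was assessed by CellTiter-Glo luminescence, with surviving fraction expressed relative to the median of DMSO-only wells. Lines were screened three times and retained only if replicate Pearson r exceeded 0.7 and median Z' exceeded 0.3.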

[2] = compound: Cn1cc(C2=Nc3cc(NC(=O)C(N)C4CCCCC4)cc4c3C2=CNNC4=O)cn1; assay: as above; details: exposure time: 5 days
How it was run: as §1

[3] = compound: T1, CANERTINIB; assay: area under dose-response curve of surviving fraction (unscaled, Aref=0) (surviving fraction x log10(nM)); higher = more resistant; details: exposure time: 5 days; dose range 0.5-1000 nM
How it was run: (§2)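 Three screens per tumour cell line were run in 384-well plates at eight inhibitor concentrations from 0.5 to 1000 nM over five days. Surviving fractions, from CellTiter-Glo luminescence normalised to DMSO-only wells, were fitted with 3-parameter logistic curves in the drc R package. The reported area under the curve is the unscaled activity area. It spans log10 dose, and Aref is 0.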

[4] = compound: CCCCCCCCCCCCCCCC(=O)Nc1ccn([C@@H]2O[C@H](CO)[C@@H](O)[C@@H]2C#N)c(=O)n1 [SAPACITABINE]; assay: as above; details: exposure time: 5 days; dose range 0.5-1000 nM
How it was run: as §2

[5] = compound: CC[C@@H]1C(=O)N(C)c2cnc(Nc3ccc(C(=O)NC4CCN(C)CC4)cc3OC)nc2N1C1CCCC1 [BI-2536]; assay: as above; details: exposure time: 5 days; dose range 0.5-1000 nM
How it was run: as §2

[6] = compound: CNC(=O)c1ccc(N2C(=S)N(c3ccc(C#N)c(C(F)(F)F)c3)C(=O)C2(C)C)cc1F [MDV3100]; assay: as above; details: exposure time: 5 days; dose range 0.5-1000 nM
How it was run: as §2

Test System | surviving fraction ([1]; 0.5 nM) | surviving fraction ([1]; 1 nM) | surviving fraction ([1]; 5 nM) | surviving fraction ([1]; 10 nM) | surviving fraction ([1]; 50 nM) | surviving fraction ([1]; 100 nM) | surviving fraction ([1]; 500 nM) | surviving fraction ([1]; 1000 nM) | surviving fraction ([2]; 0.5 nM) | surviving fraction ([2]; 1 nM) | surviving fraction ([2]; 5 nM) | surviving fraction ([2]; 10 nM) | surviving fraction ([2]; 50 nM) | surviving fraction ([2]; 100 nM) | surviving fraction ([2]; 500 nM) | surviving fraction ([2]; 1000 nM) | area under dose-response curve [3] | area under dose-response curve [4] | area under dose-response curve [5] | area under dose-response curve [6]
CHLA90 AUTONOMIC GANGLIA | 0.869 ± 0.021 | 0.876 ± 0.083 | 0.744 ± 0.072 | 0.704 ± 0.03 | 0.812 ± 0.08 | 0.761 ± 0.057 | 0.684 ± 0.045 | 0.643 ± 0.062 | 1.01 ± 0.025 | 1.07 ± 0.07 | 0.956 ± 0.057 | 0.992 ± 0.023 | 0.772 ± 0.03 | 0.557 ± 0.04 | 0.101 ± 0.0068 | 0.0843 ± 0.011 | 2.51 | 2.09 | 1.2 | 2.67
VP229 BREAST | 0.724 ± 0.051 | 0.682 ± 0.085 | 0.638 ± 0.11 | 0.514 ± 0.061 | 0.467 ± 0.021 | 0.42 ± 0.033 | 0.201 ± 0.019 | 0.154 ± 0.044 | 1.04 ± 0.11 | 1.04 ± 0.035 | 1.02 ± 0.059 | 1.11 ± 0.17 | 1.06 ± 0.15 | 1.01 ± 0.064 | 1.13 ± 0.13 | 1.06 ± 0.15 | 1.58 | 2.46 | 1.18 | –
NCIH441 LUNG | 0.951 ± 0.059 | 1.02 ± 0.02 | 1.01 ± 0.029 | 1.03 ± 0.07 | 0.918 ± 0.1 | 0.923 ± 0.0095 | 0.736 ± 0.098 | 0.635 ± 0.086 | 0.975 ± 0.037 | 1.01 ± 0.018 | 1.01 ± 0.05 | 1.06 ± 0.084 | 1.04 ± 0.024 | 0.895 ± 0.078 | 0.401 ± 0.031 | 0.319 ± 0.0068 | 3.05 | 2.28 | 1.79 | 3.25
SCC003 HEADNECK | 0.691 ± 0.065 | 0.867 ± 0.032 | 0.897 ± 0.054 | 0.775 ± 0.014 | 0.899 ± 0.075 | 0.8 ± 0.075 | 0.718 ± 0.036 | 0.434 ± 0.061 | 1.03 ± 0.12 | 1.05 ± 0.21 | 1.1 ± 0.083 | 1.12 ± 0.041 | 1.1 ± 0.14 | 1.1 ± 0.095 | 0.902 ± 0.11 | 0.86 ± 0.12 | 2.54 | 2.85 | 1.71 | 3.21
RDES SOFT TISSUE | 0.774 ± 0.16 | 0.858 ± 0.12 | 0.707 ± 0.049 | 0.713 ± 0.19 | 0.903 ± 0.063 | 1.06 ± 0.14 | 1.09 ± 0.032 | 0.921 ± 0.21 | 1.12 ± 0.071 | 0.961 ± 0.14 | 0.953 ± 0.08 | 1.1 ± 0.21 | 0.776 ± 0.2 | 1.08 ± 0.39 | 0.0493 ± 0.0045 | 0.0827 ± 0.011 | 2.83 | 2.34 | 1.09 | 3.91
SUM159 BREAST | 0.973 ± 0.011 | 0.961 ± 0.028 | 0.948 ± 0.028 | 0.9347 ± 0.0076 | 0.9437 ± 0.0046 | 0.942 ± 0.022 | 0.916 ± 0.012 | 0.9197 ± 0.009 | 1.13 ± 0.14 | 1.16 ± 0.17 | 1.16 ± 0.19 | 1.12 ± 0.12 | 1.01 ± 0.066 | 1.1 ± 0.12 | 1.04 ± 0.012 | 0.862 ± 0.011 | 3.11 | 2.81 | 1.81 | 3.33
SCC90 HEADNECK | 0.781 ± 0.13 | 0.793 ± 0.056 | 0.787 ± 0.018 | 0.737 ± 0.064 | 0.656 ± 0.075 | 0.564 ± 0.065 | 0.428 ± 0.021 | 0.335 ± 0.051 | 0.92 ± 0.099 | 0.952 ± 0.11 | 0.943 ± 0.12 | 0.991 ± 0.014 | 0.891 ± 0.057 | 0.702 ± 0.029 | 0.15 ± 0.0075 | 0.068 ± 0.0076 | 2.13 | 3.07 | 0.697 | –
MDAMB157 BREAST | 0.847 ± 0.035 | 0.86 ± 0.088 | 0.858 ± 0.048 | 0.936 ± 0.049 | 0.921 ± 0.067 | 0.844 ± 0.089 | 0.753 ± 0.013 | 0.658 ± 0.051 | 0.982 ± 0.061 | 0.965 ± 0.13 | 1.02 ± 0.065 | 0.994 ± 0.12 | 1 ± 0.044 | 0.916 ± 0.1 | 0.425 ± 0.057 | 0.172 ± 0.043 | 2.78 | 2.24 | 0.791 | 3.08
ZR751 BREAST | 0.993 ± 0.042 | 0.957 ± 0.044 | 0.948 ± 0.052 | 0.957 ± 0.093 | 0.802 ± 0.026 | 0.77 ± 0.062 | 0.648 ± 0.052 | 0.618 ± 0.029 | 1.04 ± 0.079 | 1.03 ± 0.19 | 0.941 ± 0.13 | 0.908 ± 0.11 | 0.787 ± 0.032 | 0.69 ± 0.053 | 0.625 ± 0.044 | 0.555 ± 0.018 | 2.8 | 2.9 | 2.69 | 3.69
DU4475 BREAST | 0.819 ± 0.11 | 0.797 ± 0.088 | 0.782 ± 0.099 | 0.742 ± 0.15 | 0.976 ± 0.12 | 0.919 ± 0.045 | 0.79 ± 0.18 | 0.596 ± 0.13 | 0.979 ± 0.32 | 0.981 ± 0.17 | 1.03 ± 0.2 | 0.96 ± 0.19 | 0.821 ± 0.25 | 0.659 ± 0.19 | 0.136 ± 0.026 | 0.0377 ± 0.0084 | 2.65 | 1.86 | 1.14 | 3.04
SYO1 SYNOVIAL | 0.836 ± 0.061 | 0.791 ± 0.045 | 0.793 ± 0.027 | 0.784 ± 0.029 | 0.86 ± 0.029 | 0.871 ± 0.038 | 0.666 ± 0.019 | 0.498 ± 0.022 | 0.977 ± 0.022 | 0.96 ± 0.026 | 0.924 ± 0.04 | 0.897 ± 0.036 | 0.441 ± 0.02 | 0.18 ± 0.051 | 0.0432 ± 0.008 | 0.042 ± 0.0055 | 2.48 | 1.23 | 0.562 | 2.45
JIMT1 BREAST | 0.896 ± 0.02 | 0.904 ± 0.029 | 0.94 ± 0.029 | 0.911 ± 0.021 | 0.968 ± 0.021 | 0.897 ± 0.042 | 0.633 ± 0.041 | 0.541 ± 0.042 | 0.921 ± 0.046 | 0.941 ± 0.051 | 0.911 ± 0.023 | 0.9362 ± 0.0086 | 0.874 ± 0.037 | 0.927 ± 0.042 | 0.803 ± 0.011 | 0.424 ± 0.025 | 2.93 | 2.84 | 0.911 | 3.33
HS57T BREAST | 0.946 ± 0.044 | 0.899 ± 0.047 | 0.893 ± 0.11 | 0.911 ± 0.02 | 0.919 ± 0.081 | 0.908 ± 0.012 | 0.843 ± 0.047 | 0.692 ± 0.02 | 1.04 ± 0.02 | 1.09 ± 0.027 | 1.11 ± 0.019 | 1.08 ± 0.047 | 0.967 ± 0.07 | 0.72 ± 0.027 | 0.097 ± 0.0087 | 0.0793 ± 0.0038 | – | – | – | –
HCC1806 BREAST | 0.803 ± 0.11 | 0.688 ± 0.12 | 0.738 ± 0.081 | 0.706 ± 0.022 | 0.738 ± 0.12 | 0.639 ± 0.027 | 0.442 ± 0.043 | 0.328 ± 0.037 | 1.08 ± 0.062 | 1.16 ± 0.14 | 1.09 ± 0.071 | 1.05 ± 0.092 | 0.528 ± 0.15 | 0.145 ± 0.041 | 0.0373 ± 0.0042 | 0.0433 ± 0.0025 | 2.12 | 1.25 | 0.671 | 3.52
HOS BONE | 0.955 ± 0.029 | 0.923 ± 0.011 | 0.932 ± 0.031 | 0.915 ± 0.019 | 1.01 ± 0.012 | 1.01 ± 0.026 | 0.935 ± 0.011 | 0.914 ± 0.014 | 1.024 ± 0.0086 | 1.03 ± 0.038 | 1.04 ± 0.041 | 1.02 ± 0.016 | 0.908 ± 0.052 | 0.524 ± 0.05 | 0.0407 ± 0.0015 | 0.0373 ± 0.0015 | 3.14 | 2.63 | 0.874 | 3.36

Source: the supplement of paper PMC6045584
